Experiment [1] relates to mouse bone marrow derived macrophages (BMDM). As to the kind of experiment: G-CSF secretion in mouse BMDM (ELISA). The class given is cell-based. Conditions: for G-CSF secretion by FPRL1 agonists: 16 h. How it is done: SAA induces G-CSF expression in monocytes and macrophages: To determine whether SAA plays a role in neutrophilia, the ability of SAA to stimulate G-CSF expression was investigated. Human peripheral blood monocytes (PBMC) were incubated with SAA, and the concentration of secreted G-CSF in the culture medium was determined at various time points after stimulation. The concentration of SAA used in this experiment (1 μM) was well within its physiological range (0.08 μM to 80 μM). […] Since subsequent studies used mice for measurement of G-CSF secretion and neutrophilia, SAA-induced G-CSF expression in mouse bone marrow derived macrophages (BMDM) was determined, of which 98% were F4/80^+ CD14^+ based on flow cytometry analysis. […] The basal level of G-CSF remained stable at approximately 42 pg/ml/10^6 cells over the entire course of incubation.
It was next determined whether induction of G-CSF expression was a primary function of SAA or resulted from contaminating LPS in the SAA preparation. The LPS concentration in the recombinant SAA preparation was ≦0.1 ng/μg protein, translating into ≦1.14 ng/ml LPS in a typical experiment with 1 μM SAA. LPS at this or 10-fold higher concentrations was tested for its effect on the expression of G-CSF. […] Given that most proteins are heat labile while LPS is heat resistant, the ability of heat-treated SAA (1 μM) and LPS (1 μg/ml) to stimulate G-CSF secretion in mouse BMDM was examined. After boiling for 25 min, LPS retained its ability to induce G-CSF production by ˜83%. […] In parallel experiments, polymyxin B, an amphiphilic cyclic polycationic peptide that specifically binds to LPS and blocks the cytokine-inducing effect of LPS (Stokes et al., 1989), was used to treat SAA or LPS prior to incubation with BMDM. […] Under the same experimental conditions, polymyxin B reduced LPS-stimulated G-CSF secretion by more than 70%.
It was previously shown that FPRL1 is involved in SAA-induced IL-8 production in human neutrophils (He et al., 2003). It has also been shown that SAA binds to FPRL1 and stimulates the production of matrix metalloproteinase (O'Hara et al., 2004). […] A role of TLR2 in SAA-stimulated G-CSF expression was examined.
Cell preparation and culture: Human peripheral blood monocytes were prepared from fresh, heparinized venous blood by Ficoll-Hypaque density-gradient centrifugation. Blood drawing followed a protocol approved by the Institutional Review Board at the University of Illinois at Chicago. Purified monocytes (>93% CD14^+ by flow cytometry) were kept in nonadherent condition in RPMI 1640 containing 0.5% FBS and maintained at 37° C. Mouse macrophages were differentiated from bone marrow cells. Mouse bone marrow cells were aspirated from the femurs of 8-12-week-old mice and cultured at 37° C. in 5% CO2 in RPMI 1640 medium containing 10% FBS, 15% L-cell conditional medium, 10 mM HEPES, 2 mM L-glutamine, 100 IU/ml penicillin, and 50 μg/ml streptomycin. The medium was changed every three days. Macrophages (about 98% F4/80+ by flow cytometry) were obtained after 7 days of culture. The mouse macrophage cell line RAW264.7 cells were maintained in DMEM medium supplemented with 10% FBS, 10 mM HEPES, 2 mM L-glutamine, 100 IU/ml penicillin, and 50 μg/ml streptomycin. TLR2-HeLa cells were generated by transfection of HeLa cell with the expression construct pUNO-hTLR2 (InvivoGen). Stable transfectants were selected with Blasticidin at 20 μg/ml for 2 weeks. Mock-transfected HeLa cells were generated similarly, with a pUNO empty vector. Cells were maintained in DMEM supplemented with 10% heat-inactivated FBS, 2 mM L-glutamine, 100 IU/ml penicillin, and 50 μg/ml streptomycin. Expression of TLR2 was confirmed using an anti-TLR2 antibody (eBioscience) and FTTC-conjugated anti-mouse antibody, on a FACSCalibur flow cytometer (Becton Dickinson). FIGS. 12 and 13 are plasmid maps of pUNO-hTLR2 and pNF-κB-Luc, respectively. […]
In general terms: ELISA stands for enzyme-linked immunosorbent assay.

Experiment [2] relates to RelA/p65 binding to the CK-1 site of the G-CSF promoter. In words: Chromatin immunoprecipitation (ChIP) assay in RAW264.7 cells. Type of experiment: cell-based, mouse. Conditions: SAA 1 μM or TNFα 50 ng/ml. On the procedure: To investigate the mechanism for SAA-induced G-CSF production, the level of G-CSF transcript in SAA-stimulated BMDM was determined. […] The induction of G-CSF transcript peaked at 4 h after SAA stimulation. Since transcription of the G-CSF gene involves NF-κB binding to the RelA/p65 consensus element in the CK-1 site of the G-CSF promoter (Dunn et al., 1994; Hareng and Hartung, 2002), the role of NF-κB in SAA-stimulated G-CSF expression was determined. […] Using oligonucleotide probe based on the sequence of the CK-1 site (−161 to −152 in the G-CSF promoter), a protein •DNA complex (FIG. 2C) was identified. […] Inclusion of a RelA/p65 antibody blocking peptide in the assay abrogated the immunoprecipitation (FIG. 2D).
ChIP assay: Reagents were obtained from Upstate Biotechnology, and ChIP assay was performed as per manufacturers specifications with minor modifications. Briefly, a total of 1×10^7 RAW264.7 cells were harvested and resuspended in a serum-free DMEM medium absence or presence of 1 μM SAA, or 50 ng/ml of TNFα, and incubated for 30 or 60 min at 37° C. Following stimulation, cells were crosslinked and then washed and resuspended in SDS-lysis buffer, and were sonicated (4 times for 10 s each, with a setting at ‘4’ on a Fisher Sonic 60 dismembrenator). […] The PCR products were analyzed on a 2.5% agarose gel.

Experiment [3] has as its target T1, TLR2 (Homo sapiens, UniProt O60603).
T1 construct: host or cells: HeLa
In words: NF-κB luciferase reporter assay in TLR2-HeLa cells. The class given is cell-based. The conditions noted are these: HDL preincubation. On the procedure:
To determine whether TLR2 is a receptor for SAA, a TLR2-expressing cell line was prepared in HeLa cells, which contain very little endogenous TLR2 transcript (FIG. 6A, upper panel). […] TLR2 is a class I transmembrane protein that contains an extracellular ligand binding domain (ectodomain), a transmembrane domain and a cytoplasmic domain consisting of the Toll/IL-1/receptor/Resistance (TIR) motif. Studies have shown that TLR2 forms heterodimers with TLR1 and TLR6 (Ozinsky et al., 2000), which display different preference for TLR2 ligands (Hoebe et al., 2005; Takeuchi et al., 2002). The C-terminal TIR domain is conserved among TLRs and responsible for TLR signaling (O'Neill and Bowie, 2007; Takeda and Akira, 2004). To assess the relative contributions of TLRs to SAA signaling, TLR1, TLR2, TLR4 and TLR6 were overexpressed in the TLR2-HeLa cells, and their effects on SAA-induced NF-κB luciferase reporter activity were determined. […] In addition, the TIR domain deletion mutants (ΔTIR) of these receptors were expressed, which are negative regulators of TLR signaling.
Methods for the generation of TLR2-HeLa stable cell line: HeLa cells stably transfected with human TLR2 gene were generated by transfecting HeLa cells with the expression construct pUNO-hTLR2 (InvivoGen, San Diego, Calif.; GenBank accession number for human TLR2 cDNA is NM_003264) and selected with Blasticidin at concentration of 20 μg/ml for 2 weeks. The control HeLa cells were generated at the same time by transfecting with empty pUNO vector. Cells were maintained in DMEM supplemented with 10% heat-inactivated FB S, 2 mM L-glutamine, 100 IU/ml penicillin, and 50 μg/ml streptomycin. Expression of TLR2 was confirmed using an anti-TLR2 antibody (eBioscience) and FTTC-conjugated anti-mouse antibody, on a FACSCalibur flow cytometer (Becton Dickinson). The TLR2-HeLa and control cells were then co-transfected with 5xNF-κB reporter plasmids (pNF-κB-Luc, Stratagene, Cedar Creek, Tex., catalog no. 219077) and empty SFFV vector bearing a neomycin resistant gene. The TLR2-HeLa/NF-κB reporting cells were obtained after selecting with G418 at concentration of […] for 2-3 weeks. Cells (5′10^5/ml) were grown in DMEM supplemented with 10% heat-inactivated FBS, 2 mM L-glutamine, 100 IU/ml penicillin, and […] streptomycin.
Methods for using HeLa cells in reporter assay: Mock-transfected HeLa and TLR2-HeLa cells were maintained at ˜5×10^5 cells/well in six-well plates, transfected with plasmid expression vectors coding for a 3×κB-directed luciferase reporter, pCMVβ vector DNA (Promega) and/or other expression constructs as indicated. Total DNA concentration was adjusted to 1 μg/sample by addition of empty vector DNA. Transient transfection was performed using LipofectAmine Plus reagent (Invitrogen). […]
Background: A reporter such as luciferase makes a cellular process visible.

T1 sequence (O60603 21-784): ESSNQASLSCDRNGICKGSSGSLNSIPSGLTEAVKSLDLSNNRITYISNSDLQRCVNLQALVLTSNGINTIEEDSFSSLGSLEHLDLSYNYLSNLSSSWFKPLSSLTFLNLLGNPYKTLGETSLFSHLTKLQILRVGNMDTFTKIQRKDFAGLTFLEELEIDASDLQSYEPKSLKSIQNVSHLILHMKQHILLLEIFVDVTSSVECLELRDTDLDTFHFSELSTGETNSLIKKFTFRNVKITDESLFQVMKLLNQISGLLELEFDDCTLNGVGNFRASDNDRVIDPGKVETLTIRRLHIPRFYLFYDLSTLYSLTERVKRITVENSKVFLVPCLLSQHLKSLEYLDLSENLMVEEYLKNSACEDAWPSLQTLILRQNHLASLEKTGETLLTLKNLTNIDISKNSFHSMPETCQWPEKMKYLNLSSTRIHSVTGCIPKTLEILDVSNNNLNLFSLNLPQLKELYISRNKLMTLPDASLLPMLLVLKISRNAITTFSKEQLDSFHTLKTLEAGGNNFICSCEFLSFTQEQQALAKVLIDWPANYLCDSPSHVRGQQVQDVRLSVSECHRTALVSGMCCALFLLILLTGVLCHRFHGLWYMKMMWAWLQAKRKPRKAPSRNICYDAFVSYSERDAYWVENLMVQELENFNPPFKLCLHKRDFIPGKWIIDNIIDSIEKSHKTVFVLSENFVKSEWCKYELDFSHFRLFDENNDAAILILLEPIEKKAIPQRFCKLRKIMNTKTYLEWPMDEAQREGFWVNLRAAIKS
T1 sequence (Q15399 25-786 partner): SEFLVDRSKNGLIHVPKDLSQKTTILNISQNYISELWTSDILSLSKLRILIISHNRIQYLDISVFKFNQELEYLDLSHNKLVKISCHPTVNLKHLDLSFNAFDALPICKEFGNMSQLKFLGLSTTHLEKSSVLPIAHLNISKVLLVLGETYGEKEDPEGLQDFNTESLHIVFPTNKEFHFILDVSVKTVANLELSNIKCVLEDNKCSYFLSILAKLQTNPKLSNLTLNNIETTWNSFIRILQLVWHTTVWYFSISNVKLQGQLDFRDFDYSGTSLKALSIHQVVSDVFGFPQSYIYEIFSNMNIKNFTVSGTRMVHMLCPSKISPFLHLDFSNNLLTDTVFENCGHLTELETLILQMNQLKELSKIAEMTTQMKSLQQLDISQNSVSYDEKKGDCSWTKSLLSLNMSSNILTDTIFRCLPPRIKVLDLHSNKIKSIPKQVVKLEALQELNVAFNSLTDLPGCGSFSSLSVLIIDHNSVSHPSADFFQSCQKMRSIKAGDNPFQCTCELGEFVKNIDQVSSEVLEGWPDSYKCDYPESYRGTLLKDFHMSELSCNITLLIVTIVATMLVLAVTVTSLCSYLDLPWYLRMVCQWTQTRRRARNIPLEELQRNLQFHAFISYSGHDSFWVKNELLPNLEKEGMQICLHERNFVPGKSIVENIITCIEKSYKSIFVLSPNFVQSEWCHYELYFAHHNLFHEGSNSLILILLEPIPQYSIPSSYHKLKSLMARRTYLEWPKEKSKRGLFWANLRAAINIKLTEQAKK

Turning to pertussis toxin [reference compound], in experiment [1] (BMDM pretreated overnight with pertussis toxin up to 200 ng/ml, then SAA 16 h), the “inhibition of SAA-induced G-CSF secretion” value is “no significant inhibition”.

Consider WKYMVm [reference compound], for which the “G-CSF secretion by FPRL1 agonists” value in experiment [1] (BMDM) is given as “unable to stimulate G-CSF secretion”. On to Polymyxin B [reference compound], for which the “reduction of LPS-stimulated G-CSF secretion” value in experiment [1] (polymyxin B 50 μg/ml pretreatment of LPS 1 μg/ml, BMDM) is “more than 70%”. The “effect on potency of SAA in stimulating G-CSF expression” value in experiment [1] (polymyxin B 50 μg/ml pretreatment of SAA, BMDM) is “minimal effect”. Turning to “LESIFRSLLFRVM [MMK-1, reference compound]”, the “G-CSF secretion by FPRL1 agonists” value in experiment [1] (BMDM) is “unable to stimulate G-CSF secretion”. With TNFα [reference compound], the “pull-down of CK-1 DNA fragment by anti-RelA/p65 antibody” value in experiment [2] was “able to pull-down the CK-1 DNA fragment”.

B1: L7A: SAA with Leucine to Alanine mutation at position 7 (protein)
chain: RSFFSFAGEAFDGARDMWRAYSDMREANYIGSDKYFHARGNYDAAKRGPGGAWAAEVITDARENIQRFFGHGAEDSLADQAANEWGRSGKDPNHFRPAGLPEKY
Take B1: the “effect of L7A mutation of SAA on the reduction by HDL of NF-κB activation” value in experiment [3] was “partially reversed the reduction effect by HDL”.

Source of the values: patent US7629135B2, “Toll-like receptor agonists and antagonists and methods of use thereof” (The Board of Trustees of the University of Illinois, priority 2006, dated 2009).
